Results published in patent US20160000762A1, “IMPROVING COGNITIVE FUNCTION” (THE REGENTS OF THE UNIVERSITY OF CALIFORNIA, priority 2013, published 2016).

What was measured:
[1] = test system: primary hippocampal neurons; experiment: Dendritic spine density in transfected primary hippocampal neurons; assay type: cell-based, Sprague-Dawley rats; conditions: 5 μM
Protocol: Primary neuron culture and immunostaining. Primary hippocampal neurons from E19 Sprague-Dawley rats were cultured at 150 cells/mm^2 as previously described (Pak et al., 2001). Neurons were transfected using Lipofectamine™ 2000 (Invitrogen, Carlsbad, Calif., USA) or calcium phosphate precipitation with GFP+PLL, GFP+APP shRNA, or GFP+APP and treated with BTA-EG4. The following antibodies were used: mouse anti-GFP (Novus Biologicals, 9F9.F9), rabbit anti-GFP (Invitrogen, A11122), rabbit anti-GluR1 (Calbiochem, PC246), mouse anti-GluR2 (BD Pharmagen, 556341), mouse anti-postsynaptic density (PSD)-95 (NeuroMabs, Davis, Calif., USA), mouse anti-Synaptophysin (Sigma Aldrich, s5768), rabbit APP N-terminal (Sigma-Aldrich, A8967), anti-Ras (BD Biosciences, 610001), anti-RasGRF1 (Santa Cruz, C-20; BD Biosciences, 610149), anti-ERK1/2 (Cell Signaling, 4695), anti-p-ERK1/2 (Invitrogen, 36880), anti-CREB (Cell Signaling, D76D11), anti-p-CREB (Millipore, 06-519), and mouse anti-c-Myc (Novus Biologicals, 9E10). Cultured hippocampal neuron images were acquired by LSM 510 laser scanning confocal microscope (Zeiss). Confocal zseries image stacks encompassing entire dendrite segments were analyzed using MetaMorph software (Universal Imaging Corporation, Downington, Pa., USA).
To examine whether BTA-EG4 acts through APP to increase dendritic spine density, we acutely knocked down APP using shRNA in primary hippocampal neurons. APP shRNA was cotransfected with GFP to visualize dendritic spines, and control cultures were transfected with GFP and PLL (control vector for shRNA construct). We then treated both cultures with BTA-EG4 (5 μM) or vehicle. […] To confirm this finding in vivo, we examined the effect of BTA-EG4 on dendritic spine density in APP knockout (KO) mice. APP-KO mice were injected with BTA-EG4 (30 mg/kg) or vehicle for 2 weeks, and Golgi analysis was conducted on hippocampal CA1 neurons.
To examine whether the effect of BTA-EG4 on dendritic spine formation is Ras dependent, primary hippocampal neurons were transfected with GFP and RasGRF1 shRNA, or GFP and PLL. After 24 h, we treated with BTA-EG4 (5 μM) or control for another 24 h, and spine density was measured using immunofluorescence. […] After 24 h, we then treated neurons with BTA-EG4 (5 μM) or control for 24 h, and spine density was measured. Ras-WT alone or combined with BTA-EG4 increased dendritic spine density compared with control (FIGS. 7K, 7L).

CA1 pyramidal neurons = experiment: Whole cell recordings (mEPSC, AMPA/NMDA) in CA1 pyramidal neurons of injected mice; assay type: in vivo; conditions: 30 mg/kg i.p., 2 weeks
Protocol: Electrophysiology. Transverse [for Schaffer collateral (SC) input studies] or horizontal [for temporammonic (TA) input studies] hippocampal slices (400-μm thick) were prepared from adult mice. Slices were made using ice-cold dissection buffer (in mM: 212.7 sucrose, 2.6KCl, 1.23NaH2PO4, 10 dextrose, 3MgCl2 and 1CaCl2; 5% CO2/95% O2), and recordings were done in a submersion-type chamber perfused with artificial cerebrospinal fluid (ACSF, in mM: 124NaCl, 5KCl, 1.25NaH2PO4, 26NaHCO3, 10 dextrose, 1.5MgCl2, and 2.5CaCl2; 5% CO2/95% O2, 29.5-30.5° C., 2 ml/min). For field potential recordings, synaptic responses were evoked using 0.2 ms duration pulses delivered through a bipolar glass stimulating electrode at 0.0333 Hz. A train of TBS consisted of a burst of 4 pulses at 100 Hz repeated 10 times at 5 Hz. For 4× TBS, 4 trains of TBS were given at 10 sec inter-train-intervals. […] Recording was initiated 2-3 min after break-in, and each cell was recorded for 10-15 min to collect enough mEPSCs for analysis. […] Cells were held at −70 mV, and the recorded mEPSC data were digitized at 10 kHz with a data acquisition board (National Instruments, Austin, Tex.) and acquired through custom-made programs using the Igor Pro software (WaveMetrics, Lake Oswego, Oreg.). […] Only about 4% of the total recorded cells (at most 1 cell per experimental group) were excluded due to negative correlation between mEPSC rise and amplitude. One hundred consecutive mEPSCs that met the rise time criteria were analyzed from each cell. AMPAR- and NMDAR-mediated currents were measured at −70 and +40 mV, respectively. AMPAR mediated EPSC amplitudes were measured at the peak of the current at −70 mV. NMDAR mediated EPSC amplitudes were measured 100 ms after the stimulation artifact. […]
To verify that the increase in dendritic spine density and synaptic proteins reflects an increase in functional synapses, we measured miniature excitatory postsynaptic currents (mEPSCs) from CA1 neurons in hippocampal slices following in vivo administration of BTA-EG4 (30 mg/kg, i.p.) for 2 weeks.

In the case of BTA-EG4, the dendritic spine density ([1]; 24 h, GFP and PLL control vector) was “significantly increased”, the dendritic spine density ([1]; 24 h, RasGRF1 knockdown) was “prevented the effect” and the dendritic spine density ([1]; 24 h, combined with Ras-WT, vs control) was “increased”. The dendritic spine density ([1]; 24 h, in the presence of RasN17) was “could no longer increase”, the dendritic spine density ([1]; knockdown of APP (APP shRNA)) was “prevented the increase” and the AMPAR/NMDAR ratio (CA1 pyramidal neurons) was “did not observe a change”. For the same substance, the “average mEPSC amplitude” value (CA1 pyramidal neurons) was “no significant difference” and the “frequency of mEPSCs” value (CA1 pyramidal neurons) was “significantly increased”.
